From US9062041B2 (Bayer Intellectual Property GmbH, priority 2011, dated 2015)

Experiments:
Assay type in all cases: cell-based
[1] = target: EP2 subtype of the human PGE2 receptor (Homo sapiens, UniProt P43116); experiment: cAMP antagonism test on the human EP2 receptor (HTRF cAMP detection); conditions: hEP2 receptor, read-out: Antagonism hEP2 IC50
Procedure, shortened: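 Cells expressing human EP2 preincubated 20 min at RT with compound (0.8 nM–16.5 μM), then stimulated 60 min with PGE2 (3× solution 1.5 nM) in PBS-IBMX. After 20 min lysis, cAMP measured by competitive HTRF with cAMP-d2 and Eu cryptate anti-cAMP antibody (665/620 nm ratio).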

[2] = target: EP4 subtype of the human PGE2 receptor (Homo sapiens, UniProt P35408); experiment: cAMP antagonism test on the human EP4 receptor (HTRF cAMP detection); conditions: selectivity towards hEP4, IC50 measured by cAMP antagonism test
Chain of EP4 subtype of the human PGE2 receptor (P35408 whole entry): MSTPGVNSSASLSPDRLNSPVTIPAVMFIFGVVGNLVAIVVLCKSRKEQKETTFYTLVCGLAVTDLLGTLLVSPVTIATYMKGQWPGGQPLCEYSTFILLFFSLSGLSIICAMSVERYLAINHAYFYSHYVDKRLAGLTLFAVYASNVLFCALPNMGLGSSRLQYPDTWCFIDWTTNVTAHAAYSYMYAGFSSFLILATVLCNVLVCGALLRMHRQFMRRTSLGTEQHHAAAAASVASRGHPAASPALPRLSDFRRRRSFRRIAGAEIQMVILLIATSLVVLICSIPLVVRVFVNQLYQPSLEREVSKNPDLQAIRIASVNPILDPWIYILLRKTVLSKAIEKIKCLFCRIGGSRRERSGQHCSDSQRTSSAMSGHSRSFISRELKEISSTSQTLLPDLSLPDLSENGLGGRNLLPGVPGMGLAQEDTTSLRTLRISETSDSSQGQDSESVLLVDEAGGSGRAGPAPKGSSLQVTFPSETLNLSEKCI
Procedure, shortened: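 Cells expressing human EP4 preincubated 20 min at RT with compound (0.8 nM–16.5 μM), then stimulated with PGE2 (0.3 nM in 3× solution, with IBMX) 60 min at RT. After lysis, cAMP measured by HTRF competition (665/620 nm ratio); antagonism seen as rise in FRET signal.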

human PGD receptor = target: T1, human PGD receptor (Homo sapiens, UniProt Q13258); experiment: cAMP antagonism test on the human prostaglandin D receptor (HTRF cAMP detection); conditions: selectivity towards hDP, IC50 measured by cAMP antagonism test
T1 sequence (Q13258 1-359): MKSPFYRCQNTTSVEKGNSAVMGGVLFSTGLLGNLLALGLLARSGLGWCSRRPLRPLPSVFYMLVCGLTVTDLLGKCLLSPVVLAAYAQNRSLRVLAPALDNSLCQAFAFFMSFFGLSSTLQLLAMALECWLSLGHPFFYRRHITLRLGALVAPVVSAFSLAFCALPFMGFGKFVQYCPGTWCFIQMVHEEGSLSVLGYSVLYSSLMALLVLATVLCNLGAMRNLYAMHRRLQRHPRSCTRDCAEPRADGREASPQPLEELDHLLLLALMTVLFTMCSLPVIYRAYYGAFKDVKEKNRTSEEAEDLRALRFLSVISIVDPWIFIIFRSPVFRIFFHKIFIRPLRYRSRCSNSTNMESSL
Procedure, shortened: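 Cells pre-mixed with cAMP-d2 were preincubated with compound (0.8 nM–16.5 μM) for 20 min at RT, then stimulated with 3× PGD2 solution (6 nM, in PBS-IBMX) for 30 min at RT. After lysis (20 min), HTRF read at 665/620 nm; antagonism seen as rise in FRET ratio.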

Chain of EP2 subtype of the human PGE2 receptor (P43116 whole entry): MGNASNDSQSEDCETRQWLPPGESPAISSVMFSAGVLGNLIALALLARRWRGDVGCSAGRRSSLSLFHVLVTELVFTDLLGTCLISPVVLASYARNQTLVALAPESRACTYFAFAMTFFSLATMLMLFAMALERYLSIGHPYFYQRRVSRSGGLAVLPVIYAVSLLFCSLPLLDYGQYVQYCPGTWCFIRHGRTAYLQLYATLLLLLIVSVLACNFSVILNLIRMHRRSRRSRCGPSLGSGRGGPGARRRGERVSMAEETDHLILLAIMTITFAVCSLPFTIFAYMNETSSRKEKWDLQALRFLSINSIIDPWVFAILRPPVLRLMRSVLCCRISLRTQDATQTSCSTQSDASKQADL

Row | SMILES | IC50 [1] [nM] | Selectivity hEP2/hEP4 [2] | Selectivity hEP2/hDP (human PGD receptor)
1 | Cc1cc2nn(CC3CCN(C(=O)c4cccc(S(F)(F)(F)(F)F)c4)CC3)cc2cc1C(=O)NCCN1CCOCC1 [Example 81, 6-methyl-N-(2-morpholinoethyl)-2-({1-[3-(pentafluoro-λ^6-sulphanyl)benzoyl]-piperidin-4-yl}-methyl)-2H-indazol-5-carboxamide] | 513 | xx (xx: 10-100) | xx (xx: 10-100)
2 | Cc1c(C(=O)NCCC#N)ccc2nn(CC3CCN(C(=O)c4ccc(Oc5ccc(C(F)(F)F)cc5)cc4)CC3)cc12 [Example 246, N-(2-cyanoethyl)-4-methyl-2-[(1-{4-[4-(trifluoromethyl)phenoxy]benzoyl}piperidin-4-yl)methyl]-2H-indazol-5-carboxamide] | 9.23 | xxx (xxx > 100) | xxx (xxx > 100)
3 | COCCNC(=O)c1ccc2nn(CC3CN(C(=O)c4cc5cc(Cl)ccc5n4C)C3)cc2c1C [Example 171, 2-({1-[(5-chloro-1-methyl-1H-indol-2-yl)carbonyl]azetidin-3-yl}methyl)-N-(2-methoxyethyl)-4-methyl-2H-indazol-5-carboxamide] | 3.88 | xxx (xxx > 100) | xxx (xxx > 100)
4 | COCCNC(=O)c1ccc2nn(CC3CCN(C(=O)c4ccc(-c5ccc(C(F)(F)F)nc5)cc4)CC3)cc2c1C [Example 374, N-(2-methoxyethyl)-4-methyl-2-[(1-{4-[6-(trifluoromethyl)pyridin-3-yl]-benzoyl}piperidin-4-yl)methyl]-2H-indazol-5-carboxamide] | 6.58 | xxx (xxx > 100) | xxx (xxx > 100)
5 | COCCNC(=O)c1ccc2nn(CC3CN(C(=O)c4cn(C)c5ccccc45)C3)cc2c1C [Example 282, N-(2-methoxyethyl)-4-methyl-2-({1-[(1-methyl-1H-indol-3-yl)carbonyl]azetidin-3-yl}methyl)-2H-indazol-5-carboxamide] | 20.1 | xxx (xxx > 100) | xxx (xxx > 100)
6 | COCCNC(=O)c1ccc2nn(CC3CN(C(=O)c4ccc(SC(F)(F)F)cc4)C3)cc2c1OC [Example 215, 4-methoxy-N-(2-methoxyethyl)-2-[(1-{4-[(trifluoromethyl)sulphanyl]benzoyl}azetidin-3-yl)methyl]-2H-indazol-5-carboxamide] | 39 | xxx (xxx > 100) | xxx (xxx > 100)
7 | COCCNC(=O)c1ccc2nn(CC3CCN(C(=O)c4ccc(-c5ccno5)cc4)CC3)cc2c1C [Example 37, N-(2-methoxyethyl)-4-methyl-2-({1-[4-(isoxazol-5-yl)-benzoyl]piperidin-4-yl}methyl)-2H-indazol-5-carboxamide] | 104 | xxx (xxx > 100) | xxx (xxx > 100)
8 | COCCNC(=O)c1ccc2nn(CC3CCN(C(=O)c4ccc(-c5ccc(OC)cc5)cc4)CC3)cc2c1C [Example 351, 2-({1-[(4′-methoxybiphenyl-4-yl)carbonyl]piperidin-4-yl}methyl)-N-(2-methoxy-ethyl)-4-methyl-2H-indazol-5-carboxamide] | 6.84 | xxx (xxx > 100) | xxx (xxx > 100)
9 | COCCNC(=O)c1ccc2nn(CC3CCN(C(=O)c4ccc(OC)cc4F)CC3)cc2c1C [Example 7, 2-{[1-(2-fluoro-4-methoxybenzoyl)piperidin-4-yl]methyl}-N-(2-methoxyethyl)-4-methyl-2H-indazol-5-carboxamide] | 25.8 | xxx (xxx > 100) | xxx (xxx > 100)
10 | COC(C)CNC(=O)c1ccc2nn(CC3CN(C(=O)c4ccc(Cl)cc4)C3)cc2c1C (single isomer, unassigned) [Example 140, (S or R)-2-{[1-(4-chlorobenzoyl)azetidin-3-yl]methyl}-N-(2-methoxypropyl)-4-methyl-2H-indazol-5-carboxamide] | 55.3 | xxx (xxx > 100) | xxx (xxx > 100)
11 | Cc1c(C(=O)NCC2COCCO2)ccc2nn(CC3CCN(C(=O)c4ccc(Oc5ccc(C(F)(F)F)cc5)cc4)CC3)cc12 (single isomer, unassigned) [Example 418, (R or S)—N-(1,4-dioxan-2-ylmethyl)-4-methyl-2-[(1-{4-[4-(trifluoromethyl)-phenoxy]benzoyl}piperidin-4-yl)methyl]-2H-indazol-5-carboxamide] | 15.8 | xxx (xxx > 100) | xxx (xxx > 100)
12 | COCCNC(=O)c1ccc2nn(CC3CCN(C(=O)c4ccc(C#N)cc4F)CC3)cc2c1C [Example 1, 2-{[1-(4-cyano-2-fluorobenzoyl)piperidin-4-yl]methyl}-N-(2-methoxyethyl)-4-methyl-2H-indazol-5-carboxamide] | 103 | xxx (xxx > 100) | xxx (xxx > 100)
13 | Cc1c(C(=O)NCC(C)OC2CCC2)ccc2nn(CC3CN(C(=O)c4ccc(Cl)cc4)C3)cc12 (racemic) [Example 154, (+/−)-2-{[1-(4-chlorobenzoyl)azetidin-3-yl]methyl}-N-[2-(cyclobutyloxy)propyl]-4-methyl-2H-indazol-5-carboxamide] | 80.8 | xxx (xxx > 100) | xxx (xxx > 100)
14 | COCCNC(=O)c1ccc2nn(CC3CCN(C(=O)c4ccc(OC(F)(F)F)cc4)CC3)cc2c1OC [Example 266, 4-methoxy-N-(2-methoxyethyl)-2-({1-[4-(trifluoromethoxy)benzoyl]piperidin-4-yl}methyl)-2H-indazol-5-carboxamide] | 18.9 | xxx (xxx > 100) | xxx (xxx > 100)
15 | COCCNC(=O)c1ccc2nn(CC3CCN(C(=O)c4cccc(Cl)c4)CC3)cc2c1C [Example 28, 2-{[1-(3-chloro-benzoyl)piperidin-4-yl]methyl}-N-(2-methoxyethyl)-4-methyl-2H-indazol-5-carboxamide] | 33.9 | xxx (xxx > 100) | xxx (xxx > 100)
16 | COCCNC(=O)c1ccc2nn(CC3CCN(C(=O)c4ccc(Oc5ccncc5)cc4)CC3)cc2c1C [Example 51, N-(2-methoxyethyl)-4-methyl-2-({1-[4-(pyridyloxy)benzoyl]piperidin-4-yl}-methyl)-2H-indazol-5-carboxamide] | 60 | xxx (xxx > 100) | xxx (xxx > 100)
17 | Cc1c(C(=O)NCCSC(F)(F)F)ccc2nn(CC3CN(C(=O)c4ccc(Cl)cc4)C3)cc12 [Example 127, 2-{[1-(4-chlorobenzoyl)azetidin-3-yl]methyl}-4-methyl-N-{2-[(trifluoromethyl)sulphanyl]ethyl}-2H-indazol-5-carboxamide] | 55.6 | xxx (xxx > 100) | xxx (xxx > 100)
18 | Cc1c(C(=O)NCCOC(C)C)ccc2nn(CC3CCN(C(=O)c4ccc(-c5ccc(F)cc5)cc4)CC3)cc12 [Example 100, 2-({1-[(4′-fluoro-biphenyl-4-yl)-carbonyl]piperidin-4-yl}methyl)-N-(2-isopropoxyethyl)-4-methyl-2H-indazol-5-carboxamide] | 6.21 | xxx (xxx > 100) | xxx (xxx > 100)
19 | COCCNC(=O)c1ccc2nn(C[C@@H]3CCN(C(=O)c4ccc(OC(F)(F)F)cc4)C3)cc2c1C [Example 218, N-(2-methoxyethyl)-4-methyl-2-({(R)-1-[4-(trifluoromethoxy)benzoyl]-pyrrolidin-3-yl}methyl)-2H-indazol-5-carboxamide] | 128 | xxx (xxx > 100) | xxx (xxx > 100)
20 | O=C(NCCOCC1CC1)c1ccc2nn(CC3CCN(C(=O)c4ccc(-c5ccc(F)cc5)cc4)CC3)cc2c1OCC(F)(F)F [Example 237, N-[2-(cyclopropylmethoxy)ethyl]-2-({1-[(4′-fluorobiphenyl-4-yl)carbonyl]piperidin-4-yl}methyl)-4-(2,2,2-trifluoroethoxy)-2H-indazol-5-carboxamide] | 31 | xxx (xxx > 100) | xxx (xxx > 100)
21 | COCCNC(=O)c1ccc2nn(CC3CCN(C(=O)c4ccc(-c5ccc(C)nc5)cc4)CC3)cc2c1C [Example 377, N-(2-methoxyethyl)-4-methyl-2-({1-[4-(6-methylpyridin-3-yl)benzoyl]piperidin-4-yl}methyl)-2H-indazol-5-carboxamide] | 27.3 | xxx (xxx > 100) | xxx (xxx > 100)
